From PMC11424460, “Inhibitory effects of calcium channel blockers nisoldipine and nimodipine on ivacaftor metabolism and their underlying mechanism” (Frontiers in Pharmacology, 2024)
pIC50, pKi: −log10 of the molar value. Entries after “also recorded” stand apart in the source; their conditions may differ. Read-outs that look alike come from different tables or passages of the source.

Experiments:
CYP3A = details: strong CYP3A inhibitor co-administered; FDA report; ref Garg et al., 2019; cited from earlier work
[1] = molecular target: ivacaftor metabolism in rat liver microsomes (RLM); assay: IC50 and inhibition mechanism (Lineweaver-Burk, Ki, αKi) on ivacaftor metabolism in RLM; assay type: in vitro ADME; details: for pIC50: ivacaftor 8.8 μM; for Inhibition type: Lineweaver-Burk plots
Experimental: (§1) This system was made up of 200 μL of incubation solution consisting of 0.3 mg/mL RLM or 0.4 mg/mL HLM, 1.0 mM NADPH, pH 7.4 PBS and ivacaftor. […] In HLM, a range of concentrations (0.1, 1, 2, 4, 12, 25 μM) of ivacaftor was used to determine Km. The solution should be pre-incubated at 37°C for 5 min before adding NADPH. Following the addition of NADPH, the mixture should be incubated for 40 min. The reaction should then be stopped at −80°C. After the enzyme reaction was completed, 20 μL of 500 ng/mL IS solution and 400 μL acetonitrile (protein precipitating agent) were added to the mixture. The mixture was vortexed for 2 min and then centrifuged at 13,000 rpm for 10 min. After centrifugation, 100 μL of the supernatant was quantified using UPLC-MS/MS.
(§2) The IC50 values for the inhibitory effects of nisoldipine and nimodipine on ivacaftor in HLM were also determined. […] The final concentration of DMSO in the culture system is less than 1%. […] The incubation and post-treatment procedures were consistent with the enzyme incubation of ivacaftor described above Section 2.2.
(§3) The incubation and post-treatment procedures were consistent with the enzyme incubation of ivacaftor described above Section 2.2.
(§4) Km values, IC50 values, Lineweaver-Burk plots and mean plasma concentration-time curves were all generated using GraphPad Prism 9.0 software (GraphPad Software, Inc., United States). Pharmacokinetic parameters of ivacaftor and M1 were obtained by analyzing them using the non-compartmental model of Drug and Statistics (DAS) (version 3.0, Mathematical Pharmacology Professional Committee of China, Shanghai, China), and a one-way ANOVA was performed to compare the pharmacokinetics of the three groups of rats using SPSS (version 26.0; SPSS Inc., Chicago, IL, United States). A P-value <0.05 was considered statistically significant. Data were represented as mean ± standard deviation (SD).

[2] = system: ivacaftor metabolism in rat liver microsomes (RLM); assay: Screening of 79 drugs (100 μM) for inhibition of ivacaftor metabolism in RLM incubation; assay type: in vitro ADME; details: each drug 100 μM, 0.3 mg/mL RLM
Experimental: The supernatants were centrifuged at 100,000 × g for 1 h, and the pellets were resuspended with cold […] PBS. Protein concentrations were determined by Bradford Protein Assay Kit (Thermo Scientific, Waltham, MA, United States).
This system was made up of 200 μL of incubation solution consisting of 0.3 mg/mL RLM or 0.4 mg/mL HLM, 1.0 mM NADPH, pH 7.4 PBS and ivacaftor. […] The solution should be pre-incubated at 37°C for 5 min before adding NADPH. Following the addition of NADPH, the mixture should be incubated for 40 min. The reaction should then be stopped at −80°C. After the enzyme reaction was completed, 20 μL of 500 ng/mL IS solution and 400 μL acetonitrile (protein precipitating agent) were added to the mixture. The mixture was vortexed for 2 min and then centrifuged at 13,000 rpm for 10 min. After centrifugation, 100 μL of the supernatant was quantified using UPLC-MS/MS.
Each drug was used at a concentration of 100 μM as the inhibitor. The culture system was 200 μL and included 0.3 mg/mL RLM, 1.0 mM NADPH, PBS, ivacaftor, and inhibitor. The reaction procedure was the same as the enzyme reaction mentioned above Section 2.2.

[3] = molecular target: ivacaftor metabolism in human liver microsomes (HLM); assay: IC50 and inhibition mechanism (Lineweaver-Burk, Ki, αKi) on ivacaftor metabolism in HLM; assay type: in vitro ADME; details: for Inhibition type: Lineweaver-Burk plots; for pIC50: ivacaftor 6.8 μM
Experimental: as §1, §2, §3, §4

Row | Structure (SMILES) | Metabolic rate (Mean ± SD, % of control) [2] | further results
1 | CCC(C)n1ncn(-c2ccc(N3CCN(c4ccc(OCC5COC(Cn6cncn6)(c6ccc(Cl)cc6Cl)O5)cc4)CC3)cc2)c1=O (centres unmarked) [itraconazole] | – | increase in AUC of ivacaftor when combined with the inhibitor (CYP3A): 15.6 fold
2 | CCOC(=O)C1=C(C)NC(C)=C(C(=O)OCC)C1c1ccccc1/C=C/C(=O)OC(C)(C)C [Lacidipine] | 14.13 ± 1.07 % of control | pIC50 [1]: 5.66
3 | COC(=O)C1=C(C)NC(C)=C(C(=O)OCC(C)C)C1c1ccccc1[N+](=O)[O-] (centres unmarked) [Nisoldipine] | 7.29 ± 4.05 % of control | pKi [1]: 5.47; α [1]: 2.53; Inhibition type [1]: Non-competitive inhibition and competitive inhibition; Inhibition type ([1]; listed as nisoldipine): mixed inhibition; also recorded: mixed-type of non-competitive and competitive inhibition; pIC50 [1]: 5.18; pIC50 ([1]; listed as nisoldipine): > 5.00; α ([1]; listed as nisoldipine): 8.48; pKi [3]: 5.41; α [3]: 9.03; Inhibition type [3]: Non-competitive inhibition and competitive inhibition; Inhibition type ([3]; listed as nisoldipine): mixed inhibition; also recorded: mixed-type of non-competitive and competitive inhibition; pIC50 [3]: 5.04; pIC50 ([3]; listed as nisoldipine): > 5.00; α ([3]; listed as nisoldipine): 35.40
4 | CCOC(=O)C1=C(C)NC(C)=C(C(=O)OC)C1c1cccc(Cl)c1Cl (centres unmarked) [Felodipine] | 13.47 ± 1.71 % of control | pIC50 [1]: 4.81
5 | CO[C@H]1O[C@@H]2O[C@@]3(C)CC[C@H]4[C@H](C)CC[C@@H]([C@H]1C)[C@@]24OO3 [Artemether] | 41.88 ± 3.81 % of control | –
6 | O=C1CCc2cc(OCCCCc3nnnn3C3CCCCC3)ccc2N1 [Cilostazol] | 13.12 ± 0.36 % of control | –
7 | Cc1cccc(C)c1OCC(C)N (centres unmarked) [Mexiletine] | 95.32 ± 2.42 % of control | –
8 | [H]/N=C(/N)c1ccc(NCc2nc3cc(C(=O)N(CCC(=O)O)c4ccccn4)ccc3n2C)cc1 [Dabigatran] | 104.42 ± 27.66 % of control | –
9 | O=c1cc(-c2ccccc2)oc2cc(O)cc(O)c12 [Chrysin] | 74.50 ± 20.73 % of control | –
10 | CC(=O)Oc1cc2c(s1)CCN(C(C(=O)C1CC1)c1ccccc1F)C2 (centres unmarked) [Prasugrel] | 31.93 ± 1.49 % of control | –
11 | COc1ccc([C@@H]2CC(=O)c3c(O)cc(O)cc3O2)cc1O [Hesperetin] | 31.12 ± 2.75 % of control | –
12 | O=c1cc(-c2ccc(O)cc2)oc2cc(O)cc(O)c12 [Apigenin] | 58.35 ± 2.14 % of control | –
13 | CCCCc1nc(Cl)c(CO)n1Cc1ccc(-c2ccccc2-c2nn[nH]n2)cc1 [Losartan] | 35.88 ± 1.19 % of control | –
14 | COc1ccccc1Oc1c(NS(=O)(=O)c2ccc(C(C)(C)C)cc2)nc(-c2ncccn2)nc1OCCO [Bosentan] | 131.49 ± 2.21 % of control | –
15 | C[C@@H]1O[C@@H](OC[C@H]2O[C@@H](Oc3c(-c4ccc(O)c(O)c4)oc4cc(O)cc(O)c4c3=O)[C@H](O)[C@@H](O)[C@@H]2O)[C@H](O)[C@H](O)[C@H]1O [Rutin] | 91.63 ± 0.31 % of control | –
16 | COCCOC(=O)C1=C(C)NC(C)=C(C(=O)OC(C)C)C1c1cccc([N+](=O)[O-])c1 (centres unmarked) [Nimodipine] | 7.84 ± 0.43 % of control | pKi [1]: 5.49; Inhibition type [1]: Competitive inhibition; pIC50 [1]: 5.34; pIC50 ([1]; listed as nimodipine): > 5.00; pKi [3]: 5.23; Inhibition type [3]: Competitive inhibition; pIC50 [3]: 5.15; pIC50 ([3]; listed as nimodipine): > 5.00

Row | Structure (SMILES) | Metabolic rate (Mean ± SD, % of control) [2] | further results
17 | COc1ccc(-n2nc(C(N)=O)c3c2C(=O)N(c2ccc(N4CCCCC4=O)cc2)CC3)cc1 [Apixaban] | 83.91 ± 3.91 % of control | –
18 | COC(=O)Nc1c(N)nc(-c2nn(Cc3ccccc3F)c3ncc(F)cc23)nc1N [Vericiguat] | 76.32 ± 1.42 % of control | –
19 | CC(=O)N1CCN(c2ccc(OCC3COC(Cn4ccnc4)(c4ccc(Cl)cc4Cl)O3)cc2)CC1 (centres unmarked) [ketoconazole] | – | increase in AUC of ivacaftor when combined with the inhibitor (CYP3A): 8.5 fold
20 | CC(C)=CCC/C(C)=C/C=C/C(C)=C/C=C/C(C)=C/C=C/C=C(C)/C=C/C=C(C)/C=C/C=C(\C)CCC=C(C)C [Lycopene] | 7.16 ± 0.77 % of control | –
21 | CC(C)n1c(=O)cc(N[C@@H](C)c2ccccc2)[nH]c1=O [mavacamten] | 94.17 ± 0.21 % of control | –
22 | COc1cc(-c2oc3cc(O)cc(O)c3c(=O)c2O)ccc1O [Isorhamnetin] | 65.68 ± 3.49 % of control | –
23 | O=C1C=CC[C@@H]2[C@H]3CCCN4CCC[C@@H](CN12)[C@@H]34 [Sophocarpine] | 93.46 ± 2.14 % of control | –
24 | O=c1c(O)c(-c2ccc(O)c(O)c2)oc2cc(O)cc(O)c12 [Quercetin] | 57.86 ± 5.58 % of control | –
25 | O=c1c(O)c(-c2cc(O)c(O)c(O)c2)oc2cc(O)cc(O)c12 [Myricetin] | 2.38 ± 0.15 % of control | –
26 | CCOC(=O)C1=C(C)NC(C)=C(C(=O)OC)C1c1cccc([N+](=O)[O-])c1 (centres unmarked) [Nitrendipine] | 27.00 ± 0.21 % of control | –
27 | O=c1cc(-c2ccccc2)oc2cc(O)c(O)c(O)c12 [Baicalein] | 15.24 ± 0.00 % of control | –
28 | N[C@@H](CC(=O)N1CCn2c(nnc2C(F)(F)F)C1)Cc1cc(F)c(F)cc1F [Sitagliptin] | 97.11 ± 2.13 % of control | –
29 | O=c1c(O)c(-c2ccc(O)cc2)oc2cc(O)cc(O)c12 [Kaempferol] | 66.02 ± 4.43 % of control | –
30 | CCC1=C(C)CN(C(=O)NCCc2ccc(S(=O)(=O)NC(=O)N[C@H]3CC[C@H](C)CC3)cc2)C1=O [Glimepiride] | 36.97 ± 1.02 % of control | –
31 | CN/C(=N/CCSCc1nc[nH]c1C)NC#N [Cimetidine] | 62.59 ± 8.46 % of control | –
32 | CC(=O)CC(c1ccccc1)c1c(O)c2ccccc2oc1=O (centres unmarked) [Warfarin] | 95.32 ± 3.41 % of control | –
